Results on ten compounds are retold here after patent publication US10927123B2, “Modulators of the beta-3 adrenergic receptor useful for the treatment or prevention of disorders related thereto” (Arena Pharmaceuticals, Inc., priority 2016, dated 2021).

In the experiment the target is Beta-3 Adrenergic Receptor (Homo sapiens (Human), UniProt P13945). In words: HTRF cAMP antagonist assay (IC50 determination). The class given is cell-based. The conditions noted are these: CHO-K1 cells stably expressing recombinant receptor; antagonism of isoproterenol at EC90; cAMP readout. An outline of the steps: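 Antagonist mode: isoproterenol at its predetermined EC90 added after compound to recombinant CHO-K1 cells in IBMX-containing PBS, 1 h, room temperature. Compounds tested as 5-fold, 10-point dilutions, top final typically 10 or 100 μM. HTRF signal converted to cAMP via standard curve, giving IC50.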
Sequence of Beta-3 Adrenergic Receptor (P13945 whole entry, species assumed): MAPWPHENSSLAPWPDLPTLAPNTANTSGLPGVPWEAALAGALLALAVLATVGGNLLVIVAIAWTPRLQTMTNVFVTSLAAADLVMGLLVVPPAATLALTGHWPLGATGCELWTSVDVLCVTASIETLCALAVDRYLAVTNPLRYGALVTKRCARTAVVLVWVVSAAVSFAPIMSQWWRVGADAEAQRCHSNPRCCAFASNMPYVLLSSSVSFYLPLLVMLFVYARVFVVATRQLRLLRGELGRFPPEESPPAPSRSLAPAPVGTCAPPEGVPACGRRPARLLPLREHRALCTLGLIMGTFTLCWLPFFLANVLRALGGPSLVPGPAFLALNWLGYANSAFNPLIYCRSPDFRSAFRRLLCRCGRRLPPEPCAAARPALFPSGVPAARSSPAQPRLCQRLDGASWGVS
In general terms: TR-FRET usually uses a lanthanide donor and a delayed reading to cut background.
Take `Cc1cccc(-c2cccc(S(=O)(=O)N3CCC4(CC3)C[C@@H](NC[C@H](O)COc3cccc(S(=O)(=O)CCO)c3)CO4)c2)n1` [Compound 128, (S)-1-(3-(2-hydroxyethylsulfonyl)phenoxy)-3-((R)-8-(3-(6-methylpyridin-2-yl)phenylsulfonyl)-1-oxa-8-azaspiro[4.5]decan-3-ylamino)propan-2-ol]: the IC50 came to 0.108 µM.
Take `O=S(=O)(c1cnc2ccccc2c1)N1CCC2(CC1)C[C@@H](NC[C@H](O)COc1cccc(S(=O)(=O)C(F)(F)CO)c1)CO2` [Compound 130, (S)-1-(3-(1,1-difluoro-2-hydroxyethylsulfonyl)phenoxy)-3-((R)-8-(quinolin-3-ylsulfonyl)-1-oxa-8-azaspiro[4.5]decan-3-ylamino)propan-2-ol]: the IC50 was found to be 0.012 µM.
The figure for `O=S(=O)(c1cccc(OC[C@@H](O)CNC2COC3(CCN(S(=O)(=O)c4ccc5ccccc5c4)CC3)C2)c1)C1CNC1` (stereo partly drawn) [Compound 21, (2S)-1-(3-(azetidin-3-ylsulfonyl)phenoxy)-3-(8-(naphthalen-2-ylsulfonyl)-1-oxa-8-azaspiro[4.5]decan-3-ylamino)propan-2-ol] is 0.252 µM; for `CCS(=O)(=O)c1cccc(OC[C@@H](O)CN[C@@H]2COC3(CCN(S(=O)(=O)c4ccc5ccccc5c4)CC3)C2)c1` [Compound 27, (S)-1-(3-(ethylsulfonyl)phenoxy)-3-((S)-8-(naphthalen-2-ylsulfonyl)-1-oxa-8-azaspiro[4.5]decan-3-ylamino)propan-2-ol] it is 0.0193 µM; for `C[C@@H]1CN(C)c2cc(S(=O)(=O)N3CCC4(CC3)C[C@@H](NC[C@H](O)COc3cccc(S(=O)(=O)C5(CO)CC5)c3)CO4)cnc2O1` [Compound 283, (S)-1-((R)-8-((R)-1,3-dimethyl-2,3-dihydro-1H-pyrido[2,3-b][1,4]oxazin-7-ylsulfonyl)-1-oxa-8-azaspiro[4.5]decan-3-ylamino)-3-(3-(1-(hydroxymethyl)cyclopropylsulfonyl)phenoxy)propan-2-ol] it is 0.0689 µM.
The figure for `O=S(=O)(CCO)c1cccc(OC[C@@H](O)CN[C@H]2COC3(CCN(S(=O)(=O)c4cccc(-c5cccc(C(F)(F)F)n5)c4)CC3)C2)c1` [Compound 125, (S)-1-(3-(2-hydroxyethylsulfonyl)phenoxy)-3-((R)-8-(3-(6-(trifluoromethyl)pyridin-2-yl)phenylsulfonyl)-1-oxa-8-azaspiro[4.5]decan-3-ylamino)propan-2-ol] is 0.0488 µM.
The figure for `Cn1cc(S(=O)(=O)N2CCC3(CC2)C[C@@H](NC[C@H](O)COc2cccc(S(=O)(=O)C4(CO)CC4)c2)CO3)c(=O)c2ccccc21` [Compound 295, 3-((R)-3-((S)-2-hydroxy-3-(3-(1-(hydroxymethyl)cyclopropylsulfonyl)phenoxy)propylamino)-1-oxa-8-azaspiro[4.5]decan-8-ylsulfonyl)-1-methylquinolin-4(1H)-one] is 0.143 µM.
As to `Cc1cc(S(=O)(=O)N2CCC3(CC2)C[C@H](NC[C@H](O)COc2cccc(S(=O)(=O)C4(CO)CC4)c2)CO3)ccc1Br` [Compound 196, (S)-1-((S)-8-(4-bromo-3-methylphenylsulfonyl)-1-oxa-8-azaspiro[4.5]decan-3-ylamino)-3-(3-(1-(hydroxymethyl)cyclopropylsulfonyl)phenoxy)propan-2-ol], the IC50 came to 0.0346 µM.
Consider `O=S(=O)(c1cnc2ccccc2c1)N1CCC2(CC1)C[C@@H](NC[C@H](O)COc1cccc(S(=O)(=O)C3(CO)CC3)c1)CO2` [Compound 136, (S)-1-(3-(1-(hydroxymethyl)cyclopropylsulfonyl)phenoxy)-3-((R)-8-(quinolin-3-ylsulfonyl)-1-oxa-8-azaspiro[4.5]decan-3-ylamino)propan-2-ol], for which the IC50 was determined as 0.0188 µM.
To `CCS(=O)(=O)c1cccc(OC[C@@H](O)CN[C@H]2COC3(CCN(S(=O)(=O)c4ccc(OC)c(-c5ccc(C6(N)CC6)cc5)c4)CC3)C2)c1` [Compound 258, (S)-1-((R)-8-(4′-(1-aminocyclopropyl)-6-methoxybiphenyl-3-ylsulfonyl)-1-oxa-8-azaspiro[4.5]decan-3-ylamino)-3-(3-(ethylsulfonyl)phenoxy)propan-2-ol] belongs 0.0277 µM.

For orientation: IC50 means the concentration at which inhibition is half-maximal.
